Legend:
HBV [1] = experiment: Anti-HBV activity, HepG2.2.15 stable transfected cell line, HBV DNA from secreted virions by realtime PCR; type: cell-based; conditions: HepG2.2.15 cells, 6 days of treatment, HBV DNA from secreted virions, read-out: HepG2 2.15 EC50
HBV [2] = experiment: Anti-HBV activity, HepG2.117 inducibly HBV producing cell line (Tet-off), intracellular HBV DNA by realtime PCR; type: cell-based; conditions: Hepatitis B virus, HepG2.117, 72 h, HepG2.117 cells, 3 days of treatment, intracellular HBV DNA; read-out: HepG2 117 EC50
[3] = Cytotoxicity in HepG2 cells, Resazurin viability assay; conditions: human, HepG2 cells, HepG2 4 days CC50 (μM), incubated for 4 days, Resazurin assay
[4] = Hepatitis B virus, HepG2.2.15, 144 h

SMILES	EC50 (HBV [1]; [4])	EC50 (HBV [2])	CC50 at 4 days [3]	EC50 (HBV [1])
Cn1cc(S(=O)(=O)NC2CCC(F)(F)C2)cc1C(=O)Nc1cc(F)c(F)c(Cl)c1 (racemic) [Compound 166, N-(3-Chloro-4,5-difluorophenyl)-4-[(3,3-difluorocyclopentyl)sulfamoyl]-1-methyl-1H-pyrrole-2-carboxamide]	140 nM	120 nM	> 25 µM	–
CC(CC(F)(F)F)NS(=O)(=O)c1cc(C(=O)Nc2cc(F)c(F)c(Cl)c2)n(C)c1 (racemic) [Compound 169, N-(3-Chloro-4,5-difluorophenyl)-1-methyl-4-[(3,3,3-trifluoro-1-methylpropyl)sulfamoyl]-1H-pyrrole-2-carboxamide]	120 nM	70 nM	11.2 µM	–
CCC(C)(NS(=O)(=O)c1cc(C(=O)Nc2cc(F)c(F)c(Cl)c2)n(C)c1)C(F)(F)F (single isomer, unassigned) [Compound 165a, N-(3-chloro-4,5-difluoro-phenyl)-1-methyl-4-[[1-methyl-1-(trifluoro-methyl)propyl]sulfamoyl]pyrrole-2-carboxamide]	150 nM	40 nM	9.3 µM	–
Cn1cc(S(=O)(=O)NC2CCC(F)(F)C2)cc1C(=O)Nc1cc(F)c(F)c(Cl)c1 (single isomer, unassigned) [Compound 166a, N-(3-Chloro-4,5-difluorophenyl)-4-[(3,3-difluorocyclopentyl)sulfamoyl]-1-methyl-1H-pyrrole-2-carboxamide]	–	100 nM	17.9 µM	140 nM
Cc1cc(NC(=O)c2cc(S(=O)(=O)NC(C)(C)C(=O)O)cn2C)ccc1F [Compound 61, 2-[[5-[(4-fluoro-3-methyl-phenyl)carbamoyl]-1-methyl-pyrrol-3-yl]-sulfonylamino]-2-methyl-propanoic acid]	–	> 1000 nM	> 25 µM	–
COCC(C)(NS(=O)(=O)c1cc(C(=O)Nc2cc(F)c(F)c(Cl)c2)n(C)c1)C(F)(F)F (stereo not shown) [Compound 73, N-(3-chloro-4,5-difluoro-phenyl)-1-methyl-4-[[2,2,2-trifluoro-1-(methoxymethyl)-1-methyl-ethyl]sulfamoyl]pyrrole-2-carboxamide]	–	100 nM	14.1 µM	–
Cn1cc(S(=O)(=O)NC2(C)COC2)c(F)c1C(=O)Nc1ccc(F)c(Cl)c1 [Compound 108, N-(3-Chloro-4-fluorophenyl)-3-fluoro-1-methyl-4-[(3-methyloxetan-3-yl)sulfamoyl]-1H-pyrrole-2-carboxamide]	–	10 nM	> 25 µM	–
CC[C@H](NS(=O)(=O)c1cn(C)c(C(=O)Nc2ccc(F)c(C#N)c2)c1F)C(F)(F)F [Compound 284, N-(3-cyano-4-fluoro-phenyl)-3-fluoro-1-methyl-4-[[(1S)-1-(trifluoro-methyl)propyl]sulfamoyl]pyrrole-2-carboxamide]	–	9 nM	> 25 µM	–
C[C@@H](NS(=O)(=O)c1cn(C)c(C(=O)Nc2ccc(F)cc2)c1F)C(F)(F)F [Compound 285, 3-fluoro-N-(4-fluorophenyl)-1-methyl-4-[[(1R)-2,2,2-trifluoro-1-methyl-ethyl]sulfamoyl]pyrrole-2-carboxamide]	–	7 nM	> 25 µM	–
C[C@@H](NS(=O)(=O)c1cn(C)c(C(=O)Nc2ccc(F)c(C(F)F)c2)c1F)C(F)(F)F [Compound 286, N-[3-(difluoromethyl)-4-fluoro-phenyl]-3-fluoro-1-methyl-4-[[(1R)-2,2,2-trifluoro-1-methyl-ethyl]sulfamoyl]pyrrole-2-carboxamide]	–	5 nM	21.9 µM	–
CC[C@@H](NS(=O)(=O)c1cn(C)c(C(=O)Nc2ccc(F)c(C#N)c2)c1Cl)C(F)(F)F [Compound 290, 3-chloro-N-(3-cyano-4-fluoro-phenyl)-1-methyl-4-[[(1R)-1-(trifluoro-methyl)propyl]sulfamoyl]pyrrole-2-carboxamide]	–	20 nM	> 25 µM	–
C[C@@H](NS(=O)(=O)c1cn(C)c(C(=O)Nc2ccc(F)c(C#N)c2)c1Br)C(F)(F)F [Compound 292, 3-bromo-N-(3-cyano-4-fluoro-phenyl)-1-methyl-4-[[(1R)-2,2,2-trifluoro-1-methyl-ethyl]sulfamoyl]pyrrole-2-carboxamide]	–	30 nM	15.5 µM	–
Cc1c(S(=O)(=O)N[C@H](C)C(F)(F)F)c(F)c(C(=O)Nc2ccc(F)c(C#N)c2)n1C [Compound 299, N-(3-cyano-4-fluoro-phenyl)-3-fluoro-1,5-dimethyl-4-[[(1R)-2,2,2-trifluoro-1-methyl-ethyl]sulfamoyl]pyrrole-2-carboxamide]	–	9 nM	> 25 µM	–
C[C@@H](NS(=O)(=O)c1c(Cl)c(C(=O)Nc2ccc(F)c(C#N)c2)n(C)c1Br)C(F)(F)F [Compound 300, 5-bromo-3-chloro-N-(3-cyano-4-fluoro-phenyl)-1-methyl-4-[[(1R)-2,2,2-trifluoro-1-methyl-ethyl]sulfamoyl]pyrrole-2-carboxamide]	–	8 nM	14.2 µM	–
C[C@@H](NS(=O)(=O)c1c(F)c(C(=O)Nc2ccc(F)c(C#N)c2)n(C)c1Br)C(F)(F)F [Compound 301, 5-bromo-N-(3-cyano-4-fluoro-phenyl)-3-fluoro-1-methyl-4-[[(1R)-2,2,2-trifluoro-1-methyl-ethyl]sulfamoyl]pyrrole-2-carboxamide]	–	7 nM	> 25 µM	–
C[C@@H](NS(=O)(=O)c1c(Cl)c(C(=O)Nc2ccc(F)c(C#N)c2)n(C)c1C1CC1)C(F)(F)F [Compound 302, 3-chloro-N-(3-cyano-4-fluoro-phenyl)-5-cyclopropyl-1-methyl-4-[[(1R)-2,2,2-trifluoro-1-methyl-ethyl]sulfamoyl]pyrrole-2-carboxamide]	–	30 nM	> 25 µM	–
CC(C)c1c(S(=O)(=O)N[C@H](C)C(F)(F)F)cn(C)c1C(=O)Nc1ccc(F)c(C#N)c1 [Compound 303, N-(3-cyano-4-fluoro-phenyl)-3-isopropyl-1-methyl-4-[[(1R)-2,2,2-trifluoro-1-methyl-ethyl]sulfamoyl]pyrrole-2-carboxamide]	–	> 12500 nM	> 25 µM	–
C[C@@H](NS(=O)(=O)c1c(F)c(C(=O)Nc2ccc(F)c(C#N)c2)n(C)c1C1CC1)C(F)(F)F [Compound 304, N-(3-cyano-4-fluoro-phenyl)-5-cyclopropyl-3-fluoro-1-methyl-4-[[(1R)-2,2,2-trifluoro-1-methyl-ethyl]-sulfamoyl]-pyrrole-2-carboxamide]	–	10 nM	> 25 µM	–
Cn1cc(S(=O)(=O)NC2CCCC2)c(Cl)c1C(=O)Nc1ccc(F)c(C#N)c1 [Compound 307, 3-chloro-N-(3-cyano-4-fluoro-phenyl)-4-(cyclopentylsulfamoyl)-1-methyl-pyrrole-2-carboxamide]	–	30 nM	> 25 µM	–
Cc1cc(NC(=O)c2c(Br)c(S(=O)(=O)N[C@H](C)C(F)(F)F)cn2C)ccc1F [Compound 308, 3-bromo-N-(4-fluoro-3-methyl-phenyl)-1-methyl-4-[[(1R)-2,2,2-trifluoro-1-methyl-ethyl]sulfamoyl]pyrrole-2-carboxamide]	–	10 nM	> 25 µM	–
C=Cc1c(S(=O)(=O)N[C@H](C)C(F)(F)F)c(F)c(C(=O)Nc2ccc(F)c(C#N)c2)n1C [Compound 311, N-(3-cyano-4-fluoro-phenyl)-3-fluoro-1-methyl-4-[[(1R)-2,2,2-trifluoro-1-methyl-ethyl]sulfamoyl]-5-vinyl-pyrrole-2-carboxamide]	–	60 nM	> 25 µM	–
C[C@@H](NS(=O)(=O)c1cn(C)c(C(=O)Nc2ccc(F)cc2F)c1F)C(F)(F)F [Compound 312, N-(2,4-difluorophenyl)-3-fluoro-1-methyl-4-[[(1R)-2,2,2-trifluoro-1-methyl-ethyl]sulfamoyl]pyrrole-2-carboxamide]	–	60 nM	> 25 µM	–
C[C@@H](NS(=O)(=O)c1c(F)c(C(=O)Nc2ccc(F)c(C#N)c2F)n(C)c1Cl)C(F)(F)F [Compound 314, 5-chloro-N-(3-cyano-2,4-difluoro-phenyl)-3-fluoro-1-methyl-4-[[(1R)-2,2,2-trifluoro-1-methyl-ethyl]sulfamoyl]pyrrole-2-carboxamide]	–	7 nM	> 25 µM	–
C[C@@H](NS(=O)(=O)c1c(F)c(C(=O)Nc2ccc(F)c(C#N)c2F)n(C)c1Br)C(F)(F)F [Compound 315, 5-bromo-N-(3-cyano-2,4-difluoro-phenyl)-3-fluoro-1-methyl-4-[[(1R)-2,2,2-trifluoro-1-methyl-ethyl]sulfamoyl]pyrrole-2-carboxamide]	–	7 nM	> 25 µM	–
C[C@@H](NS(=O)(=O)c1cn(C)c(C(=O)Nc2ccc(F)c(C#N)c2)c1F)C(C)(F)F [Compound 317, N-(3-cyano-4-fluoro-phenyl)-4-[[(1R)-2,2-difluoro-1-methyl-propyl]sulfamoyl]-3-fluoro-1-methyl-pyrrole-2-carboxamide]	–	6 nM	> 25 µM	–
C[C@H](NS(=O)(=O)c1cn(C)c(C(=O)Nc2ccc(F)c(C#N)c2)c1F)C(C)(F)F [Compound 318, N-(3-cyano-4-fluoro-phenyl)-4-[[(1S)-2,2-difluoro-1-methyl-propyl]sulfamoyl]-3-fluoro-1-methyl-pyrrole-2-carboxamide]	–	19 nM	> 25 µM	–
Cn1cc(S(=O)(=O)NC2(C(F)(F)F)CCC2)c(F)c1C(=O)Nc1ccc(F)c(C#N)c1 [Compound 319, N-(3-cyano-4-fluoro-phenyl)-3-fluoro-1-methyl-4-[[1-(trifluoromethyl)cyclobutyl]sulfamoyl]pyrrole-2-carboxamide]	–	< 4 nM	> 25 µM	–
